Test results from PubChem BioAssay AID1963868 (Molecular Pharmacology Branch, DTP, NCI, 2024).

System: KRAS PDC tumor spheroids (HUVEC+MSC), viability
Assay: Anticancer human tumor 254851-301-R-J1-PDC patient-derived colon carcinoma cell line growth inhibition [KRAS2]
Settings: for IC50: curve of first compound; for viability, T/C: stronger effect = lower value
In short: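 KRAS-mutant tumor cells were grown as spheroids with HUVEC endothelial cells and human MSCs as stroma. Targeted agents were tested alone and with KRAS pathway inhibitors. Doses started at or near clinical Cmax, or 10 microM, descending half-log.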

[1] = second compound 0.1 µM, first compound 0.0316 µM
[2] = second compound 0.1 µM, first compound 0.1 µM
[3] = second compound 0.316 µM, first compound 0.0316 µM
[4] = second compound 0.316 µM, first compound 0.1 µM
[5] = second compound 1 µM, first compound 0.0316 µM
[6] = second compound 1 µM, first compound 0.1 µM
[7] = second compound 3.16 µM, first compound 0.0316 µM
[8] = second compound 3.16 µM, first compound 0.1 µM
[9] = second compound 10 µM, first compound 0.0316 µM
[10] = second compound 10 µM, first compound 0.1 µM
[11] = second compound 0.1 µM, first compound 0.316 µM
[12] = second compound 0.1 µM, first compound 1 µM
[13] = second compound 0.1 µM, first compound 3.16 µM
[14] = second compound 0.1 µM, first compound 10 µM
[15] = second compound 0.316 µM, first compound 0.316 µM
[16] = second compound 0.316 µM, first compound 1 µM
[17] = second compound 0.316 µM, first compound 3.16 µM
[18] = second compound 0.316 µM, first compound 10 µM
[19] = second compound 1 µM, first compound 0.316 µM
[20] = second compound 1 µM, first compound 1 µM
[21] = second compound 1 µM, first compound 3.16 µM
[22] = second compound 1 µM, first compound 10 µM
[23] = second compound 3.16 µM, first compound 0.316 µM
[24] = second compound 3.16 µM, first compound 1 µM
[25] = second compound 3.16 µM, first compound 3.16 µM
[26] = second compound 3.16 µM, first compound 10 µM
[27] = second compound 10 µM, first compound 0.316 µM
[28] = second compound 10 µM, first compound 1 µM
[29] = second compound 10 µM, first compound 3.16 µM
[30] = second compound 10 µM, first compound 10 µM
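Note: spheroids exposed to compounds for seven days before readout.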
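Throughout, for viability, T/C: 100% = DMSO vehicle control luminescence of the spheroids.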

| Compound | IC50 (second compound 0.1 µM) | IC50 (second compound 0.316 µM) | IC50 (second compound 1 µM) | IC50 (second compound 3.16 µM) | IC50 (second compound 10 µM) | viability, T/C [1] | viability, T/C [2] | viability, T/C [3] | viability, T/C [4] | viability, T/C [5] | viability, T/C [6] | viability, T/C [7] | viability, T/C [8] | viability, T/C [9] | viability, T/C [10] | viability, T/C [11] | viability, T/C [12] | viability, T/C [13] | viability, T/C [14] | viability, T/C [15] | other results |
| --- | --- | --- | --- | --- | --- | --- | --- | --- | --- | --- | --- | --- | --- | --- | --- | --- | --- | --- | --- | --- | --- |
| CN(C)C/C=C/C(=O)Nc1cc2c(Nc3ccc(F)c(Cl)c3)ncnc2cc1O[C@H]1CCOC1 + COc1cc2nc(C)nc(NC(C)c3cc(N)cc(C(F)(F)F)c3)c2cc1OC1CCOC1 | > 0.1 µM | > 0.1 µM | > 0.1 µM | > 0.1 µM | > 0.1 µM | 96.5% | 75.3% | 88% | 74.7% | 85.9% | 81.7% | 84.6% | 63.5% | 65.9% | 59.5% | – | – | – | – | – | viability, T/C (second compound 0.1 µM, first compound 0.000316 µM): 104%; viability, T/C (second compound 0.1 µM, first compound 0.001 µM): 110%; viability, T/C (second compound 0.1 µM, first compound 0.00316 µM): 108%; viability, T/C (second compound 0.1 µM, first compound 0.01 µM): 102%; viability, T/C (second compound 0.316 µM, first compound 0.000316 µM): 102%; viability, T/C (second compound 0.316 µM, first compound 0.001 µM): 102%; viability, T/C (second compound 0.316 µM, first compound 0.00316 µM): 91.9%; viability, T/C (second compound 0.316 µM, first compound 0.01 µM): 87.9%; viability, T/C (second compound 1 µM, first compound 0.000316 µM): 99.5%; viability, T/C (second compound 1 µM, first compound 0.001 µM): 101%; viability, T/C (second compound 1 µM, first compound 0.00316 µM): 92.7%; viability, T/C (second compound 1 µM, first compound 0.01 µM): 81.8%; viability, T/C (second compound 3.16 µM, first compound 0.000316 µM): 91%; viability, T/C (second compound 3.16 µM, first compound 0.001 µM): 85.3%; viability, T/C (second compound 3.16 µM, first compound 0.00316 µM): 89.7%; viability, T/C (second compound 3.16 µM, first compound 0.01 µM): 78.7%; viability, T/C (second compound 10 µM, first compound 0.000316 µM): 78.2%; viability, T/C (second compound 10 µM, first compound 0.001 µM): 78.9%; viability, T/C (second compound 10 µM, first compound 0.00316 µM): 81.6%; viability, T/C (second compound 10 µM, first compound 0.01 µM): 82.9% |
| COC(=O)c1ccc2c(C(=Nc3ccc(N(C)C(=O)CN4CCN(C)CC4)cc3)c3ccccc3)c(O)[nH]c2c1 + COc1cc2nc(C)nc(NC(C)c3cc(N)cc(C(F)(F)F)c3)c2cc1OC1CCOC1 | > 10 µM | > 10 µM | > 10 µM | 3.85 µM | 1.24 µM | 90.9% | 102% | 88% | 95% | 86.9% | 90.5% | 93.2% | 85.9% | 82.7% | 87% | 89% | 85.3% | 98.7% | 87% | 92.5% | viability, T/C [16]: 86.1%; viability, T/C [17]: 90.2%; viability, T/C [18]: 90.4%; viability, T/C [19]: 83.3%; viability, T/C [20]: 77.7%; viability, T/C [21]: 80.1%; viability, T/C [22]: 73%; viability, T/C [23]: 88.9%; viability, T/C [24]: 80.2%; viability, T/C [25]: 59.2%; viability, T/C [26]: 6.26%; viability, T/C [27]: 77.8%; viability, T/C [28]: 61.3%; viability, T/C [29]: 1.22%; viability, T/C [30]: 0.29% |
| O=C(c1cc(Cc2n[nH]c(=O)c3ccccc23)ccc1F)N1CCN(C(=O)C2CC2)CC1 + COc1cc2nc(C)nc(NC(C)c3cc(N)cc(C(F)(F)F)c3)c2cc1OC1CCOC1 | > 10 µM | > 10 µM | > 10 µM | > 10 µM | > 10 µM | 111% | 94.5% | 94.5% | 103% | 101% | 108% | 94.9% | 89.8% | 94.9% | 90% | 98.5% | 91.8% | 101% | 97.2% | 95.1% | viability, T/C [16]: 96.1%; viability, T/C [17]: 96.4%; viability, T/C [18]: 104%; viability, T/C [19]: 101%; viability, T/C [20]: 101%; viability, T/C [21]: 98.1%; viability, T/C [22]: 98.2%; viability, T/C [23]: 89.5%; viability, T/C [24]: 95.2%; viability, T/C [25]: 90.4%; viability, T/C [26]: 87.3%; viability, T/C [27]: 91%; viability, T/C [28]: 82.7%; viability, T/C [29]: 76.2%; viability, T/C [30]: 78% |
